Read-outs that look alike come from different tables or passages of the source.
Columns and labels:
[1] = molecular target: T1, p53 Y220C mutant protein (amino acid residues 94-293) (Homo sapiens, UniProt P04637, Y220C); assay: Surface Plasmon Resonance (SPR) assay, Kd_kinetic; type: binding; details: SPR, p53 Y220C, read-out: SPR P53 Y220C KD kinetic
T1 construct: p53 Y220C mutant protein (amino acid residues 94-293)
Summary of the method: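 Biacore 8K SPR; 16 or 20 °C; Tris 50 mM pH 7.5, NaCl 100 mM, DTT 1 mM, Brij35 0.01%, Tween-20 0.05%, DMSO 1%. Kd_kinetic by 1:1 fit.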

p53 Y220C = p53 Y220C (Homo sapiens, UniProt P04637, Y220C); assay: Luciferase Reporter Assay (Luc), p53 response element, NClH1299 cells with inducible p53 Y220C; type: cell-based; details: 6 hour; for AC50: read-out: Luc P53 Y220C AC50
Summary of the method: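 Doxycycline (0.5 ug/mL, 24 h) induces the mutant before a 6-hour compound treatment. Reporter activity is then quantified by One-Glo luminescence.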

NUGC3 p53 Y220C = assay: Cell Proliferation Assay (CellTiter-Glo, CTG), NUGC3 p53 Y220C; type: cell-based; details: Homo sapiens, NUGC-3, 120 h, 5 days
Summary of the method: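 Tet-One inducible p53 Y220C or R273H constructs were stably introduced into NCI-H1299 by lentiviral transduction; NUGC3 was used as is. Cells (250-500 per well) were exposed to compound for 5 days, then CellTiter-Glo was added for 10 min at room temperature and IC50 was calculated from luminescence.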

H1299 p53 Y220C = assay: Cell Proliferation Assay (CellTiter-Glo, CTG), H1299 p53 Y220C (NClH1299-inducible p53 Y220C); type: cell-based; details: Homo sapiens, NCI-H1299, 120 h, 5 days
Summary of the method: (§1)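 NClH1299 lines stably transduced with Tet-inducible p53 Y220C or R273H, plus NUGC3, were treated with compound for 5 days at 250-500 cells/well. IC50 derived from CellTiter-Glo luminescent signal after 10 min room-temperature incubation.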

H1299 p53 R273H = assay: Cell Proliferation Assay (CellTiter-Glo, CTG), H1299 p53 R273H (NClH1299-inducible p53 R273H); type: cell-based; details: Homo sapiens, NCI-H1299, 120 h, 5 days
Summary of the method: as §1

[2] = AC50, luciferase reporter, NClH1299 inducible p53 Y220C
[3] = Emax, luciferase reporter, NClH1299 inducible p53 Y220C
[4] = NClH1299-inducible p53 Y220C cells, CellTiter-Glo
[5] = NClH1299-inducible p53 R273H cells, CellTiter-Glo
[6] = AC50, NClH1299 cells with inducible p53 Y220C
[7] = Emax, NClH1299 cells with inducible p53 Y220C, 10 uM tool compound as positive control
[8] = NClH1299-inducible p53 Y220C cells
[9] = NClH1299-inducible p53 R273H cells
[10] = luciferase reporter, NClH1299 inducible p53 Y220C, 10 uM tool compound as positive control
[11] = luciferase reporter, NClH1299 inducible p53 Y220C

T1 sequence (P04637 94-293, stated change not applied): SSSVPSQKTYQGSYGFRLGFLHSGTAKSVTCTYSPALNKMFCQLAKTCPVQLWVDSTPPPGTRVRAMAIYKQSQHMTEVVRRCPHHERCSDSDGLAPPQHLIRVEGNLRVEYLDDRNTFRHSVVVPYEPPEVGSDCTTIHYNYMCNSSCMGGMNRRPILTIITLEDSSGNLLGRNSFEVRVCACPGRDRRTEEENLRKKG

| Compound | Kd [1] [nM] | AC50 (p53 Y220C; [2]) [nM] | Emax (p53 Y220C; [3]) [%] | IC50 (NUGC3 p53 Y220C; NUGC3 cells, CellTiter-Glo) [nM] | IC50 (H1299 p53 Y220C; [4]) [nM] | IC50 (H1299 p53 R273H; [5]) [nM] | AC50 (p53 Y220C; [6]) [nM] | Emax (p53 Y220C; [7]) [%] | IC50 (NUGC3 p53 Y220C; NUGC3 cells) [nM] | IC50 (H1299 p53 Y220C; [8]) [nM] | IC50 (H1299 p53 R273H; [9]) [nM] | Kd ([1]; kinetic KD) [nM] | Emax (p53 Y220C; [10]) [%] | AC50 (p53 Y220C; [11]) [nM] | IC50 (NUGC3 p53 Y220C; CellTiter-Glo, NUGC3 p53 Y220C) [nM] | IC50 (H1299 p53 Y220C; CellTiter-Glo, H1299 p53 Y220C) [nM] | IC50 (H1299 p53 R273H; CellTiter-Glo, H1299 p53 R273H) [nM] |
| --- | --- | --- | --- | --- | --- | --- | --- | --- | --- | --- | --- | --- | --- | --- | --- | --- | --- |
| C[C@H](O)CNC(=O)c1ccc(NCC#Cc2cc3c(N[C@@H]4CCNC[C@@H]4F)cccn3c2SC(F)(F)F)cc1 [Example 403] | < 10 | < 750 | > 90 | < 750 | < 750 | ≥ 10000 |  |  |  |  |  |  |  |  |  |  |  |
| CNC(=O)c1cnc(OC)c(NCC#Cc2nc3c(N[C@@H]4CCN(C)C[C@@H]4F)cccn3c2SC(F)F)c1 [Example 278] | < 10 | < 750 | 70 to 80 | < 750 | < 750 | < 5000 |  |  |  |  |  |  |  |  |  |  |  |
| COc1ccc(C(=O)N[C@H](C)[C@@H](C)O)cc1NCC#Cc1cc2c(N[C@@H]3CCN(C)C[C@@H]3F)cccn2c1SC(F)(F)F [Example 473] | < 10 |  |  |  |  |  | < 750 | > 90 | < 750 | < 750 | ≥ 10000 |  |  |  |  |  |  |
| CNC(=O)c1cnc(OC)c(NCC#Cc2cc3c(N[C@@H]4CCNC[C@@H]4F)cccn3c2SC(F)(F)F)c1 [Example 498] | < 10 |  |  |  |  |  | < 750 | > 90 | < 750 | < 750 | ≥ 10000 |  |  |  |  |  |  |
| COc1cc(C(N)=O)ccc1NCC#Cc1cc2c(N[C@@H]3CCN(C)C[C@@H]3F)cccn2c1SC(F)(F)F [Example 464] | < 10 |  |  |  |  |  | < 750 | > 90 | < 750 | < 750 | ≥ 10000 |  |  |  |  |  |  |
| CNC(=O)c1ccc(N[C@H](C)C#Cc2nc3c(N[C@@H]4CCN(C)C[C@@H]4F)cccn3c2SC(F)(F)F)c(OC)c1 [Example 133] |  |  |  |  |  |  |  |  |  |  |  | 10 to 100 | > 90 | > 3000 | > 3000 | > 3000 | 5000 to 8000 |
| CNC(=O)c1ccc(NCC#Cc2cc3c(N[C@@H]4CCN(C)C[C@@H]4F)nccn3c2SC(F)(F)F)c(O)c1 [Example 446, 4-{[3-(1-{[(3S,4R)-3-fluoro-1-methylpiperidin-4-yl]amino}-6-[(trifluoromethyl)sulfanyl]pyrrolo[1,2-a]pyrazin-7-yl)prop-2-yn-1-yl]amino}-3-hydroxy-N-methylbenzamide] | < 10 | < 750 | > 90 | < 750 | < 750 | ≥ 10000 |  |  |  |  |  |  |  |  |  |  |  |
| COc1ccc(C(N)=O)cc1NCC#Cc1nn2c(N[C@@H]3CCN(C)C[C@@H]3F)cccc2c1SC(F)(F)F [Example 232] | < 10 | < 750 | 80 to 90 | < 750 | < 750 | ≥ 10000 |  |  |  |  |  |  |  |  |  |  |  |
| CNC(=O)c1ccc(NCC#Cc2cc3c(N[C@@H]4CCNC[C@@H]4F)cccn3c2SC(F)(F)F)cc1 [Example 492, 4-{[3-(8-{[(3S,4R)-3-fluoropiperidin-4-yl]amino}-3-[(trifluoromethyl)sulfanyl]indolizin-2-yl)prop-2-yn-1-yl]amino}-N-methylbenzamide] | < 10 |  |  |  |  |  | < 750 | > 90 | < 750 | < 750 | 5000 to 8000 |  |  |  |  |  |  |
| CNC(=O)c1ccc(OC)c(NCC#Cc2cc3c(N[C@@H]4CN(C)C[C@@H]4F)cccn3c2SC(F)(F)F)c1 [Example 444] | < 10 | < 750 | > 90 | < 750 | < 750 | ≥ 10000 |  |  |  |  |  |  |  |  |  |  |  |
| CNC(=O)c1ccc(NCC#Cc2cc3c(N[C@@H]4CCN(C)C[C@@H]4F)nccn3c2SC(F)(F)F)c(C#N)c1 [Example 301] | < 10 | 750 to 1500 | > 90 | 750 to 1500 | 750 to 1500 | ≥ 10000 |  |  |  |  |  |  |  |  |  |  |  |
| CNC(=O)c1ccc(O)c(NCC#Cc2cc3c(N[C@@H]4CCN(C)C[C@@H]4F)cccn3c2SC(F)(F)F)c1 [Example 472] | < 10 |  |  |  |  |  | < 750 | > 90 | < 750 | < 750 | ≥ 10000 |  |  |  |  |  |  |
| C[C@H](NC(=O)c1ccc(NCC#Cc2cc3c(N[C@@H]4CCN(C)C[C@@H]4F)cccn3c2SC(F)(F)F)cc1)[C@@H](C)O [Example 396] | < 10 | < 750 | > 90 | < 750 | < 750 | 8000 to 10000 |  |  |  |  |  |  |  |  |  |  |  |
| COc1ccc(-c2ncc[nH]2)cc1NCC#Cc1nc2c(N[C@@H]3CCN(C)C[C@@H]3F)cccn2c1SC(F)(F)F [Example 220] |  |  |  |  |  |  |  |  |  |  |  | < 10 | 70 to 80 | < 750 | < 750 | < 750 | < 5000 |
| COc1ccc(C(=O)N[C@H]2C[C@@H](O)C2)cc1NCC#Cc1cc2c(N[C@@H]3CCN(C)C[C@@H]3F)cccn2c1SC(F)(F)F [Example 471] | < 10 |  |  |  |  |  | < 750 | > 90 | < 750 | < 750 | ≥ 10000 |  |  |  |  |  |  |
| CNC(=O)c1ccc(NCC#Cc2nc3c(N[C@@H]4CCN(C)C[C@@H]4F)cccn3c2SC(F)(F)F)c(F)c1 [Example 311] | < 10 | < 750 | > 90 | < 750 | < 750 | 5000 to 8000 |  |  |  |  |  |  |  |  |  |  |  |
| CNC(=O)c1ccc(OC)c(NCC#Cc2cc3c(N[C@@H]4CCN(CC(C)O)C[C@@H]4F)cccn3c2SC(F)(F)F)c1 (single isomer, unassigned) [Example 480, 3-{[3-(8-{[(3S,4R)-3-fluoro-1-[(2R*)-2-hydroxypropyl]piperidin-4-yl]amino}-3-[(trifluoromethyl)sulfanyl]indolizin-2-yl)prop-2-yn-1-yl]amino}-4-methoxy-N-methylbenzamide] | < 10 |  |  |  |  |  | < 750 | > 90 | < 750 | < 750 | 8000 to 10000 |  |  |  |  |  |  |
| CNC(=O)c1ccc(NCC#Cc2cc3c(N[C@@H]4CCN(C)C[C@@H]4F)cccn3c2SC(F)(F)F)c(C(F)F)c1 [Example 450, 3-(difluoromethyl)-4-{[3-(8-{[(3S,4R)-3-fluoro-1-methylpiperidin-4-yl]amino}-3-[(trifluoromethyl)sulfanyl]indolizin-2-yl)prop-2-yn-1-yl]amino}-N-methylbenzamide] | < 10 | < 750 | > 90 | < 750 | < 750 | ≥ 10000 |  |  |  |  |  |  |  |  |  |  |  |
| CN1CC[C@@H](Nc2cccn3c(SC(F)(F)F)c(C#CCNc4ccc(C(=O)NC[C@@H](O)CO)cc4)cc23)[C@@H](F)C1 [Example 384] | < 10 | < 750 | > 90 | < 750 | < 750 | ≥ 10000 |  |  |  |  |  |  |  |  |  |  |  |
| CN1CC[C@@H](Nc2cccn3c(SC(F)(F)F)c(C#CCNc4ccc(C(=O)N[C@H]5C[C@@H](O)C5)cc4)cc23)[C@@H](F)C1 [Example 465] | < 10 |  |  |  |  |  | < 750 | > 90 | < 750 | < 750 | ≥ 10000 |  |  |  |  |  |  |
| CN1CC[C@@H](Nc2cccn3c(SC(F)(F)F)c(C#CCNc4ccc(C(=O)NC[C@H]5COCCO5)cc4)cc23)[C@@H](F)C1 [Example 407] | < 10 | < 750 | > 90 | < 750 | < 750 | 5000 to 8000 |  |  |  |  |  |  |  |  |  |  |  |
| CNC(=O)c1cnc(OC)c(NCC#Cc2nc3c(N[C@H]4C[C@@H]5CC[C@@H](N5)[C@H]4F)cccn3c2SC(F)(F)F)c1 [Example 267] | < 10 | < 750 | 70 to 80 | < 750 | < 750 | ≥ 10000 |  |  |  |  |  |  |  |  |  |  |  |

Reference: US20260374766A1, “METHODS FOR TREATING CANCER” (Antares Therapeutics, Inc., priority 2022, published 2026)
